This passage reports melting point results from patent US6620826B2, “Endothelin receptor antagonists” (SmithKline Beecham Corporation, priority 1994, dated 2003).

SMILES strings stand for the structures.

Take `CCCCc1ncc(/C=C(\Cc2cc3c(cc2OC)OCO3)C(=O)O)n1-c1ccc(OC)cc1OCc1nnn(CCC)n1` [Example 24, (E)-3-[2-Butyl-1-[2-(2-propyl-2H-tetrazol-5-yl)methoxy-4-methoxyphenyl]-1H-imidazol-5-yl]-2-[(2-methoxy-4,5-methylenedioxyphenyl)methyl]-2-propenoic Acid]: the melting point (commonly the temperature of the solid-liquid transition) was in the range of 110 to 118 °C.

Take `CCCCc1ncc(/C=C(\Cc2cc3c(cc2OC)OCO3)C(=O)O)n1-c1ccc(OC)cc1OCc1nnnn1CC` [Example 23, (E)-3-[2-Butyl-1-[2-(1-ethyl-1H-tetrazol-5-yl)methoxy-4-methoxyphenyl]-1H-imidazol-5-yl]-2-[(2-methoxy-4,5-methylenedioxyphenyl)methyl]-2-propenoic Acid]: the melting point was in the range of 185 to 190 °C.
